Results reported in patent publication US20210322376A1, “METHODS FOR REDUCING THE RISK OF DIABETES IN PATIENTS BEING TREATED FOR HIGH CHOLESTEROL-RELATED ILLNESSES” (Esperion Therapeutics, Inc., priority 2018, published 2021).

Tests used:
[1] = Example 3: bempedoic acid vs placebo, statin-intolerant patients on background ezetimibe, 12 weeks; assay type: in vivo, human; conditions: statin intolerant (31% low/very low dose statin), FIG. 6 and FIG. 7
Source text: (§1) Patients with diabetes were identified primarily through medical history and/or baseline lab results. No entry restrictions were placed on these patients with the exception of having a HbA1c <10% during screening. The use of background concomitant medications related to diabetes treatment was captured at the study outset. Changes in all concomitant medications were tracked during the treatment phase. No restrictions were placed on changes in diabetes medications (stopping, starting, or changing dose) during the trial.
269 total patients with statin intolerance (31% low/very dose statin) were treated for 12 weeks; all patients on background ezetimibe therapy. […] Patients were treated with bempedoic acid or placebo. The baseline HbA1c levels for patients receiving bempedoic acid was 6.66%, and the baseline HbA1c levels for patients receiving placebo was 6.76%. The baseline fasting glucose levels for patients receiving bempedoic acid was 133.7 mg/dl. The baseline fasting glucose levels for patients receiving placebo was 133.4 mg/dl. Changes in HbA1c levels were measured at week 12, and changes in fasting glucose levels were measured at weeks 4, 8, and 12.

[2] = Thorough QT/QTc (TQT) study of ETC-1002; assay type: in vivo
[3] = Muscle-related adverse events with add-on ETC-1002 therapy to statin therapy; assay type: in vivo
Source text: In some aspects, the subject experiences an adverse event when on one or more statins at the lowest FDA approved dose, said adverse events being selected form the group consisting of muscle-related pain, aches, weakness, and cramping.

[4] = Cumulative data of Examples 1-4: new onset or worsening of diabetes; assay type: in vivo, human; conditions: patients taking statins plus bempedoic acid; statins plus placebo 5.6%
[5] = Example 2: bempedoic acid vs placebo, statin-intolerant patients with a history of diabetes, 24 weeks; assay type: in vivo, human; conditions: statin intolerant (8% very low dose statin), FIG. 4 and FIG. 5
Source text: as §1
345 total patients with statin intolerance (8% very low dose statin) were treated for 24 weeks. […] Patients were treated with bempedoic acid or placebo. The baseline HbA1c levels for patients receiving bempedoic acid was 6.91%, and the baseline HbA1c levels for patients receiving placebo was 7.12%. The baseline fasting glucose levels for patients receiving bempedoic acid was 130.7 mg/dl. The baseline fasting glucose levels for patients receiving placebo was 139.8 mg/dl. Changes in HbA1c levels were measured at week 12 and week 24 and changes in fasting glucose levels were measured at weeks 4, 12, and 24.

[6] = Pharmacokinetics of ETC-1002; conditions: human, in vivo
Method: In some aspects, the methods herein provide for treating cardiovascular disease and/or reducing the risk of cardiovascular disease in a subject comprising administering an amount of a composition comprising ETC-1002 which is rapidly absorbed having a Tmax at less than about 4 hours.

[7] = Example 1: bempedoic acid vs placebo, patients with a history of diabetes on MTD statin, 52 weeks (HbA1c, fasting glucose); assay type: in vivo, human; conditions: background MTD statin (50% high intensity), FIG. 2 and FIG. 3
Source text: as §1
2230 total patients were receiving background MTD statin (50% high intensity) for 52 weeks. […] Patients were treated with bempedoic acid or placebo. The baseline HbA1c levels for patients receiving bempedoic acid was 6.85%, and the baseline HbA1c levels for patients receiving placebo was 6.89%. The baseline fasting glucose levels for patients receiving bempedoic acid was 131.4 mg/dl. The baseline fasting glucose levels for patients receiving placebo was 130.6 mg/dl. Changes in HbA1c levels were measured at week 12 and week 52 and changes in fasting glucose levels were measured at weeks 4, 8, 12, 24, and 36 and 52.

## CC(C)(CCCCCC(O)CCCCCC(C)(C)C(=O)O)C(=O)O [ETC-1002, 8-hydroxy-2,2,14,14 tetramethylpentadecanedioic acid]
[1]
  incidence of diabetes-related phenotypes, worsening of diabetes, new onset of diabetes: reduces the incidence of diabetes-related phenotypes, worsening of diabetes, and new onset of diabetes relative to placebo
[2]; TQT study
  QTc or QT/QTc prolongation: does not prolong QTc or QT/QTc
[2]; add-on ETC-1002 therapy
  heart rate and PR and QRS intervals: does not affect subject heart rate and PR and QRS intervals
[3]
  muscle-related adverse events that began or increased during statin therapy: significantly lowered or even resolved
[4]
  frequency of new onset or worsening of diabetes and diabetes-related symptoms: 4%
[5]
  incidence of diabetes-related phenotypes, worsening of diabetes, new onset of diabetes: reduces incidence of diabetes-related phenotypes, worsening of diabetes, and new onset of diabetes relative to placebo
[6]; rapidly absorbed
  Tmax: < 4 h
[6]; systemic exposure, AUCtau,ss
  half-life: 15 to 27 h
[7]
  incidence of diabetes-related phenotypes, worsening of diabetes, new onset of diabetes: reduces the incidence of diabetes-related phenotypes, worsening of diabetes, and new onset of diabetes relative to placebo
